Source: patent US5688824A, “Use of leflunomide to prevent or control xenograft rejection” (priority 1996, dated 1997)
Like-named read-outs stand apart in the source and are kept apart here.

Tests used:
[1] = system: rejection of concordant hamster to rat cardiac xenografts; conditions: earlier work, cited from earlier work
[2] = system: human peripheral blood lymphocytes; experiment: one-way mixed lymphocyte reaction (3H-thymidine uptake); type: cell-based
Experimental: The effect of varying concentrations of leflunomide product (A771726, Hoechst AG Werk Albert, Wiesbaden, Germany) in combination with varying concentrations of rapamycin (Wyeth-Ayerst Research, Rouses Point, N.Y.) was evaluated in a one-way mixed lymphocyte reaction (MLR) performed according to Kahan et al., Transplantation, 51:232 (1991). Briefly, human peripheral blood lymphocytes (2×10^5 per well) were incubated with an equal number of gamma-irradiated, allogeneic peripheral blood lymphocytes for 5 days in the presence of varying concentrations of leflunomide and rapamycin. The lymphocytes were then incubated for 16 to 20 hours with 1 μCi/well of ^3 H-thymidine. The amount of ^3 H-thymidine uptake was measured, and the percent inhibition of proliferation by each drug or drug combination was calculated. Data from two trials appear below in Tables 4 and 5.

[3] = system: heterotopic small intestinal transplantation; conditions: cited from earlier work
murine T-cell = conditions: in vitro; cited from earlier work
cGvH disease or SLE = conditions: mouse, U.S. Pat. No. 4,965,276; cited from earlier work
murine B-cell = conditions: in vitro; cited from earlier work
renal allograft = conditions: BN-LEW renal transplant; cited from earlier work
[4] = humans; cited from earlier work
SLE in MRL/lpr mice = conditions: at the end of 10 weeks, mice with elevated urine protein; cited from earlier work

SMILES: C=CC[C@@H]1/C=C(\C)C[C@H](C)C[C@H](OC)[C@H]2O[C@@](O)(C(=O)C(=O)N3CCCC[C@H]3C(=O)O[C@H](/C(C)=C/[C@@H]3CC[C@@H](O)[C@H](OC)C3)[C@H](C)[C@@H](O)CC1=O)[C@H](C)C[C@@H]2OC [FK-506]
- effect on xenograft survival ([1]; hamster to rat cardiac xenograft): limited effect on xenograft survival even at lethal doses

SMILES: O=P1(N(CCCl)CCCl)NCCCO1 (stereo not shown) [Cytoxan]
- control of xenograft rejection ([1]; Cytoxan): can completely control rejection of xenografts
- toxicity of required dose ([1]; Cytoxan): lethally toxic range

SMILES: C/C(O)=C(\C#N)C(=O)Nc1ccc(C(F)(F)F)cc1 [A771726, N-(4-trifluoromethylphenyl)-2-cyano-3-hydroxycrotonamide]
- % Inhibition of Lymphocyte Proliferation ([2]; 12.50 μM Lef, 0.00 nM Rapa, Table 4): 15.19%
- % Inhibition of Lymphocyte Proliferation ([2]; 12.50 μM Lef, 0.00 nM Rapa, Table 5): 21.84%
- % Inhibition of Lymphocyte Proliferation ([2]; 25.00 μM Lef, 0.00 nM Rapa, Table 4): 37.35%
- % Inhibition of Lymphocyte Proliferation ([2]; 25.00 μM Lef, 0.00 nM Rapa, Table 5): 38.40%
- % Inhibition of Lymphocyte Proliferation ([2]; 50.00 μM Lef, 0.00 nM Rapa, Table 4): 56.71%
- % Inhibition of Lymphocyte Proliferation ([2]; 50.00 μM Lef, 0.00 nM Rapa, Table 5): 68.63%
- survival of recipients ([3]; 5 mg/kg/day by gavage for 7 days): 15.0 ± 2.1 days
- survival of recipients ([3]; 5 mg/kg/day by gavage for 14 days): 21.2 ± 1.6 days
- survival of recipients ([3]; 5 mg/kg/day by gavage for 28 days): 33.8 ± 2.4 days
- inhibition of murine T-cell proliferation (murine T-cell): inhibit murine B-cell and T-cell proliferation
- glomerulonephritis, anti-dsDNA titer, GvH index, T-lymphocyte proliferative ability (cGvH disease or SLE): prevented development of glomerulonephritis, reduced anti-dsDNA titer, decreased the GvH index (a measure of relative spleen enlargement), and improved the diminished proliferative ability of T-lymphocytes
- inhibition of development of cGvH disease or SLE (cGvH disease or SLE): effective in inhibiting the development of cGvH disease or SLE
- inhibition of murine B-cell proliferation (murine B-cell): more potent inhibitor of B-cell proliferation

SMILES: Cn1cnc([N+](=O)[O-])c1Sc1ncnc2nc[nH]c12 [azathioprine]
- protection (renal allograft): neither azathioprine nor prednisolone offered any protection

SMILES: Nc1ccc(C(F)(F)F)cc1 [trifluoromethyl aniline]
- side effect of accumulation of the metabolite [4]: Heinz-body hemolytic anemia

SMILES: C[C@]12C=CC(=O)C=C1CC[C@@H]1[C@@H]2[C@@H](O)C[C@@]2(C)[C@H]1CC[C@]2(O)C(=O)CO [prednisolone]
- animals still alive (SLE in MRL/lpr mice): 40%
- protection (renal allograft): neither azathioprine nor prednisolone offered any protection

SMILES: CO[C@H]1C[C@@H]2CC[C@@H](C)[C@@](O)(O2)C(=O)C(=O)N2CCCC[C@H]2C(=O)O[C@H]([C@H](C)C[C@@H]2CC[C@@H](O)[C@H](OC)C2)CC(=O)[C@H](C)/C=C(\C)[C@@H](O)[C@@H](OC)C(=O)[C@H](C)C[C@H](C)/C=C/C=C/C=C/1C [rapamycin]
- % Inhibition of Lymphocyte Proliferation ([2]; 0.010 nM Rapa, 0.00 μM Lef, Table 4): 27.12%
- % Inhibition of Lymphocyte Proliferation ([2]; 0.010 nM Rapa, 0.00 μM Lef, Table 5): 4.78%
- % Inhibition of Lymphocyte Proliferation ([2]; 0.050 nM Rapa, 0.00 μM Lef, Table 4): 38.78%
- % Inhibition of Lymphocyte Proliferation ([2]; 0.050 nM Rapa, 0.00 μM Lef, Table 5): 37.75%
- % Inhibition of Lymphocyte Proliferation ([2]; 0.100 nM Rapa, 0.00 μM Lef, Table 4): 57.42%
- % Inhibition of Lymphocyte Proliferation ([2]; 0.100 nM Rapa, 0.00 μM Lef, Table 5): 51.71%
- % Inhibition of Lymphocyte Proliferation ([2]; 1.00 nM Rapa, 0.00 μM Lef, Table 4): 89.25%
- % Inhibition of Lymphocyte Proliferation ([2]; 1.00 nM Rapa, 0.00 μM Lef, Table 5): 80.83%
